From patent US12662478B2, “ATF6 modulators and uses thereof” (Altos Labs, Inc., priority 2019, dated 2026)
Read-outs that look alike come from different tables or passages of the source.

Experiments:
[1] = biological target: T1, ATF6 (Homo sapiens, UniProt P18850); assay: ERSE ATF6-luciferase assay in absence of ER stress (U2-OS ATF6 TRE-luciferase reporter cells); assay type: cell-based; conditions: normalized to maximal activation with Tg; for activation at 1 µM / activation at 10 µM: U2OS, 8 h; for activation at 1 µM / ATF6 activity @ 1 μM-No Tg [%]: 1 μM test compound; for activation at 10 µM / ATF6 activity @ 10 μM - No Tg [%]: 10 μM test compound; for ATF6 activity @ 1 μM-No Tg [%] / ATF6 activity @ 10 μM - No Tg [%]: 8 hr, Table 3-3
T1 construct: endogenous in cells; host or cells: U2-OS (ATCC HTB-96) stably transduced with the Cignal Lenti ATF6 luc reporter (Qiagen #CLS-6031L)
T1 sequence (P18850 1-670): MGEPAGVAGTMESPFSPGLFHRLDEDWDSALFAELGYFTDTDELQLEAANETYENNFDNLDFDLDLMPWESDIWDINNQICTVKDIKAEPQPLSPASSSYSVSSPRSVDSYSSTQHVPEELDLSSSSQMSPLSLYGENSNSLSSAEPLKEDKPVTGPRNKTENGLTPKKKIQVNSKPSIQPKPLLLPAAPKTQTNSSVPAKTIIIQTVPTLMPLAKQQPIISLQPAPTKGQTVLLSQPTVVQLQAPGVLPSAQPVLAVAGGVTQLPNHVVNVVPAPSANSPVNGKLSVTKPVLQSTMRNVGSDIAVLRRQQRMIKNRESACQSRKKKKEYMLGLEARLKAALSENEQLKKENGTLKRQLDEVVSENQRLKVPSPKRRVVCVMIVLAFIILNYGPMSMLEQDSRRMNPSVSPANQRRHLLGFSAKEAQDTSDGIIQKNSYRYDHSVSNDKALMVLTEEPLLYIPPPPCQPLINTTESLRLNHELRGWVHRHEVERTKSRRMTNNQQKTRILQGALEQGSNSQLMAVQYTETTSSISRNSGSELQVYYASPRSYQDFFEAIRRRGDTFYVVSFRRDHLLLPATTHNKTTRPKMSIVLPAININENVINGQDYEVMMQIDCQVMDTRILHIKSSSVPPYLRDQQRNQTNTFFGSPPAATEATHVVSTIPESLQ
Experimental: (§1) To understand how exemplary compounds of the invention modulate the activity of ATF6 in absence or presence of endoplasmic reticulum (ER) stress, a Human bone osteosarcoma (U2-OS)-based TRE-luciferase reporter stable cell line was generated to determine the modulation of transcription of ATF6 target genes.
(§2) U2-OS cells were obtained from the American Type Culture Collection (ATCC HTB-96, ATCC Manassas, VA) and were cultured with growing medium containing Dulbecco's Modified Eagle's Medium (DMEM) (Cat. No.: SH30023.02, HyClone) supplemented with fetal bovine serum (FBS) 10% (Cat. No.: 16000044, Gibco) and 1% penicillin-streptomycin antibiotic cocktail (Cat. No.: SV30010, Hyclone).
(§3) Cignal Lenti ATF6 luc reporter (Qiagen #CLS-6031L) was used to produce a stable cell line in U2-OS cells (U2-OS ATF6 TRE-luciferase reporter). The lenti ATF6 reporter is a preparation of replication incompetent, VSV-g pseudotyped lentivirus particles expressing the firefly luciferase gene under the control of a minimal (m)CMV promoter and tandem repeats of the ATF6 transcriptional response element (TRE). The number of response elements as well as the intervening sequence between response elements has been experimentally optimized to maximize the signal to noise ratio.
(§4) Exemplary compounds of the invention and reference compounds were prepared from powder as 10 mM stock solutions in dimethyl sulfoxide (DMSO; Cat. No. #D2650, Sigma Aldrich) and stored at −80° C. in presence of N2 neutral atmosphere.
(§5) For the primary screening, 40,000 U2-OS ATF6 TRE-luciferase reporter cells were plated in poly-D-lysine (Cat. No.: P2636, Sigma) pre-coated white 96-well plates (Thermo Scientific Nunc #136101) with 100 μL of growing medium. Cells were incubated in humidified chambers for 24 hr.
For testing exemplary compounds in absence of ER-stress, cells were treated for 8 hr with 100 μL growing medium containing either vehicle (DMSO), 1 or 10 μM test compound or 0.1 μM Tg. The final concentration of DMSO in each well was kept at 0.3%. Plates were incubated in humidified chambers.
After 8 hr of incubation, plates were cooled down to room temperature for 10 min prior to luciferase assays. Luciferase reactions were performed as above. Luminescence was read by integration of 1 s with a gain of 110 in a Synergy 4 Microplate reader. All measurements were carried out in triplicate.
The average activity determined from the wells containing vehicle only (DMSO, 0% of ATF6 activity) was used as blank and subtracted from the rest of measurements. The percentage of modulation of exemplary compound was calculated by normalizing values to potential maximal activation with Tg.
ATF6 activities of exemplary compounds at 1 and 10 μM in absence of Tg-induced ER stress in the U2-OS ATF6 TRE-luciferase reporter cells were determined and are shown in Table 3-2, and Table 3-3.

[2] = biological target: T1, ATF6; assay: ERSE ATF6-luciferase assay in presence of Tg-induced ER stress (U2-OS ATF6 TRE-luciferase reporter cells); assay type: cell-based; conditions: in presence of ER stress (thapsigargin), Tg only = 100%; for activity at 1 µM / activity at 10 µM: U2OS, 8 h; for activity at 1 µM / ATF6 activity @ 1 μM [%]: 1 μM test compound; for activity at 10 µM / ATF6 activity @ 10 μM [%]: 10 μM test compound; for ATF6 activity @ 1 μM [%] / ATF6 activity @ 10 μM [%]: 8 hr
Experimental: as §1, §2, §3, §4, §5
For testing exemplary compounds in presence of ER-stress, cells were pre-treated for 30 min with 50 μL growing medium containing either vehicle (DMSO), 1 or 10 μM test compound. After this pre-incubation, 50 μL of a solution containing 0.2 μM of the ER stress-inducer thapsigargin (Tg) was added to the appropriate wells. The Tg solution also contains vehicle or test compounds at 1 or 10 μM as indicated. The final concentration of DMSO in each well was kept at 0.3%. Plates were incubated for 8 hr in humidified chambers.
After the 8 hr incubation, plates were cooled down to room temperature for 10 min prior to the luciferase assays. Luciferase reactions were performed using Luciferase Assay System (Cat. No.: E4550, Promega). Briefly, each well was washed with 100 μl of PBS 1× and, then, 20 μl of lysis reagent was added into each well. Plates were shaken for 10 min and, then, 50 μl of Luciferase Assay Reagent was added to each well. Luminescence was determined by integration of 1 s with a gain of 110 in a Synergy 4 Microplate reader. All measurements were carried out in triplicate.
The average activity determined from the wells containing vehicle only (DMSO, 0% of ATF6 activity) was used as blank and subtracted from the rest of measurements. The average activity determined from the wells containing Tg only was used as 100% of ATF6 activity. The percentage of modulation of exemplary compounds was calculated by normalizing values to potential maximal activation with Tg.
ATF6 activities of exemplary compounds at 1 and 10 μM in presence Tg-induced ER stress tested in the U2-OS ATF6 TRE-luciferase reporter cells were determined and are shown in Table 2-2 and Table 3-2.

[3] = in absence of ER stress (no Tg), Table 3-3, read-out: ATF6 activity @ 1 μM-No Tg [%]
[4] = in absence of ER stress (no Tg), Table 3-3, read-out: ATF6 activity @ 10 μM - No Tg [%]
[5] = in absence of ER stress (no Tg)

SMILES	activation at 1 µM [1, 3] [%]	activation at 10 µM [1, 4] [%]	activity at 1 µM ([2]; Table 2-3) [%]	activity at 10 µM ([2]; Table 2-3) [%]	ATF6 activity @ 10 μM - No Tg [%] [1, 5]	ATF6 activity @ 1 μM [%] ([2]; Table 2-3)	also measured
CC(C1CCCC1)n1cc(NC(=O)c2cc(-c3ccco3)on2)cn1 (single isomer, unassigned) [Compound 3-18, N-(1-(1-cyclopentylethyl)-1H-pyrazol-4-yl)-5-(furan-2-yl)isoxazole-3-carboxamide]					+ (+ refers to 0% < % activity < 25% at 1 or 10 μM test compound)	+ (+ refers to 100% < % activity < 125% at 1 or 10 μM)	ATF6 activity @ 1 μM-No Tg [%] [1, 5]: + (+ refers to 0% < % activity < 25% at 1 or 10 μM test compound); ATF6 activity @ 10 μM [%] ([2]; Table 2-3): ++ (++ refers to 125% < % activity < 150% at 1 or 10 μM test compound)
CC(C1CCOC1)n1cc(NC(=O)c2cc(-c3ccco3)on2)cn1 (stereo not shown) [Compound 3-24, 5-(furan-2-yl)-N-(1-(1-(tetrahydrofuran-3-yl)ethyl)-1H-pyrazol-4-yl)isoxazole-3-carboxamide]	0 to 25			> 150	++ (++ refers to 25% < % activity < 50% at 1 or 10 μM test compound)	+ (+ refers to 100% < % activity < 125% at 1 or 10 μM)	
CC(c1c(Cl)cccc1Cl)n1cc(C#Cc2nnc(-c3ccccn3)s2)cn1 (stereo not shown) [Compound 2-20, 2-((1-(1-(2,6-dichlorophenyl)ethyl)-1H-pyrazol-4-yl)ethynyl)-5-(pyridin-2-yl)-1,3,4-thiadiazole]							activation at 1 µM ([1]; in absence of ER stress, Table 3-2, read-out: ATF6 activity @ 1 μM [%]): 0 to 25%; activation at 10 µM ([1]; in absence of ER stress, Table 3-2, read-out: ATF6 activity @ 10 μM [%]): 0 to 25%; activity at 1 µM ([2]; Table 2-2): 75 to 100%; activity at 10 µM ([2]; Table 2-2): 100 to 125%
CC(C1CCCC1)n1cc(NC(=O)c2cc(-c3ccco3)on2)cn1 (single isomer, unassigned) [Compound 3-17, N-(1-(1-cyclopentylethyl)-1H-pyrazol-4-yl)-5-(furan-2-yl)isoxazole-3-carboxamide]	0 to 25	0 to 25		125 to 150		++ (++ refers to 125% < % activity < 150% at 1 or 10 μM test compound)	
CC(C1CCOC1)n1cc(NC(=O)c2cc(-c3ccco3)on2)cn1 (stereo not shown) [Compound 3-25, 5-(furan-2-yl)-N-(1-(1-(tetrahydrofuran-3-yl)ethyl)-1H-pyrazol-4-yl)isoxazole-3-carboxamide]					+ (+ refers to 0% < % activity < 25% at 1 or 10 μM test compound)	+ (+ refers to 100% < % activity < 125% at 1 or 10 μM)	ATF6 activity @ 1 μM-No Tg [%] [1, 5]: + (+ refers to 0% < % activity < 25% at 1 or 10 μM test compound); ATF6 activity @ 10 μM [%] ([2]; Table 2-3): +++ (+++ refers to >150% at 1 or 10 μM test compound)

Further lines, with some results ahead:

activation at 1 µM [1, 3] [%]	activation at 10 µM [1, 4] [%]	activity at 1 µM ([2]; Table 2-3) [%]	activity at 10 µM ([2]; Table 2-3) [%]	SMILES	ATF6 activity @ 10 μM - No Tg [%] [1, 5]	ATF6 activity @ 1 μM [%] ([2]; Table 2-3)	also measured
0 to 25	0 to 25	100 to 125	125 to 150	O=C(Nc1cnn(Cc2c(Cl)cncc2Cl)c1)c1cc(-c2ccco2)on1 [Compound 3-6, N-(1-((3,5-dichloropyridin-4-yl)methyl)-1H-pyrazol-4-yl)-5-(furan-2-yl)isoxazole-3-carboxamide]			
0 to 25		125 to 150		O=C(Nc1cnn(C2CNC2)c1)c1cc(-c2ccco2)on1 [Compound 3-3, N-(1-(azetidin-3-yl)-1H-pyrazol-4-yl)-5-(furan-2-yl)isoxazole-3-carboxamide]			
0 to 25	0 to 25	125 to 150	> 150	O=C(Nc1cnn(C2CCNC2)c1)c1cc(-c2ccco2)on1 (stereo not shown) [Compound 3-4, 5-(furan-2-yl)-N-(1-(pyrrolidin-3-yl)-1H-pyrazol-4-yl)isoxazole-3-carboxamide]			
0 to 25	25 to 50	> 150	> 150	O=C(Nc1cnn(C2CCOC2)c1)c1cc(-c2cccs2)on1 (stereo not shown) [Compound 3-19, N-(1-(tetrahydrofuran-3-yl)-1H-pyrazol-4-yl)-5-(thiophen-2-yl)isoxazole-3-carboxamide]			
